Laboratory results from US11376259B2, “Targeted treatment of mature T-cell lymphoma” (Eli Lilly and Company, priority 2016, dated 2022).

Assays:
[1] = Atropisomer equilibrium in solution by 1H NMR and LC-MS; assay type: physicochemical; conditions: ambient temperature, after 24 hours
Description: In aqueous solutions, 8-9% of atropisomer 2 (minor atropisomer) is detected by ^1H NMR and LC-MS in equilibrium with atropisomer 1 (major atropisomer) at ambient temperature after 24 hours. In organic solvents, at ambient temperature after 24 hours, approximately 1-2% of atropisomer 2 is detected by ^1H NMR and LC-MS in equilibrium with atropisomer 1. Although detectable by ^1H NMR and LC-MS analysis, atropisomer 2 is not isolable.

[2] = tested on: AITL; assay: Clinical evaluation in patients with relapsed or refractory peripheral T-cell lymphoma (AITL patients); assay type: in vivo, human; conditions: cycle 1, oral capsules T.I.W., preliminary data
Description: (§1) A study of 4,4,4-Trifluoro-N-[(1S)-2-[[(7S)-5-(2-hydroxyethyl)-6-oxo-7H-pyrido[2,3-d][3]benzazepin-7-yl]amino]-1-methyl-2-oxo-ethyl]butanamide hydrate in patients with advanced or metastatic cancer.
(§2) This study is a multicenter, nonrandomized, open-label, dose-escalation study followed by cohort expansion of oral dosed 4,4,4-trifluoro-N-[(1S)-2-[[(7S)-5-(2-hydroxyethyl)-6-oxo-7H-pyrido[2,3-d][3]benzazepin-7-yl]amino]-1-methyl-2-oxo-ethyl]butanamide hydrate in outpatients with advanced or metastatic cancer.
Cohort expansion of oral 4,4,4-trifluoro-N-[(1S)-2-[[(7S)-5-(2-hydroxyethyl)-6-oxo-7H-pyrido[2,3-d][3]benzazepin-7-yl]amino]-1-methyl-2-oxo-ethyl]butanamide hydrate in outpatients with advanced or metastatic cancer. Patients will be entered based on screened molecular alterations related to the Notch pathway. Patients initially dosed with 75 mg/dose administered T.I.W. are dose-reduced to 50 mg/dose administered T.I.W. […]
(§3) Efficacy: Efficacy will be assessed using Response Evaluation Criteria in Solid Tumors (RECIST) v1.1 or using the Cheson et al., J. Clin. Oncol., 2007, 25(5): 579-586, response criteria for lymphoma. Each patient will be assessed by 1 or more of the following radiologic tests for tumor measurement: X-ray computerized tomography (CT) scan; magnetic resonance imaging (MRI); chest X-ray; positron emission tomography (PET) scan; dynamic contrast enhanced-magnetic resonance imaging (DCE-MRI); PET/CT imaging Standardized Uptake Values (SUVMAX); Dynamic Contrast-Enhanced Ultrasonography (DCE-US).
Each patient's full extent of disease will also be assessed with: applicable tumor measurement by RECIST 1.1 (Eisenhauer et al., Eur J Cancer. 2009, 45(2): 228-247); Cheson et al., J. Clin. Oncol., 2007, 25(5): 579-586; and Choi et al., J Clin Oncol. […] To confirm objective responses, all lesions should be radiologically assessed, and the same radiologic method used for the initial response determination should be repeated at least 4 weeks following the initial observation of an objective response, using the sample method that was used at baseline. […]

[3] = tested on: PTCL-NOS; assay: Clinical evaluation in patients with relapsed or refractory peripheral T-cell lymphoma (PTCL-NOS patient); assay type: in vivo, human; conditions: Patient 3, PTCL-NOS, cycle 1, oral capsules T.I.W., preliminary data
Description: as §1
as §2, with “cancer. […]” for “cancer.”
as §3
Each patient's full extent of disease will also be assessed with: applicable tumor measurement by RECIST 1.1 (Eisenhauer et al., Eur J Cancer. 2009, 45(2): 228-247); Cheson et al., J. Clin. Oncol., 2007, 25(5): 579-586; and Choi et al., J Clin Oncol. […]

Row | SMILES | atropisomer 2 (minor atropisomer) detected in equilibrium with atropisomer 1 ([1]; aqueous solutions) | atropisomer 2 (minor atropisomer) detected in equilibrium with atropisomer 1 ([1]; organic solvents) | CT Scan assessment: Tumor decrease ([2]; Patient 1, AITL) | PET Scan (response) ([2]; Patient 1, AITL) | CT Scan assessment: Tumor decrease ([2]; Patient 2, AITL) | CT Scan assessment [3] | Other assessments: Abnormal T cells [3]
1 | C[C@H](NC(=O)CCC(F)(F)F)C(=O)N[C@@H]1C(=O)N(CCO)c2ncccc2-c2ccccc21 [Compound 1, 4,4,4-trifluoro-N-[(1S)-2-[[(7S)-5-(2-hydroxyethyl)-6-oxo-7H-pyrido[2,3-d][3]benzazepin-7-yl]amino]-1-methyl-2-oxo-ethyl]butanamide] | 8-9% | 1-2% | – | – | – | – | –
2 | C[C@H](NC(=O)CCC(F)(F)F)C(=O)N[C@@H]1C(=O)N(CCO)c2ncccc2-c2ccccc21 [4,4,4-trifluoro-N-[(1S)-2-[[(7S)-5-(2-hydroxyethyl)-6-oxo-7H-pyrido[2,3-d][3]benzazepin-7-yl]amino]-1-methyl-2-oxo-ethyl]butanamide hydrate] | – | – | of 80% | Partial | of 20% | Stable | Decrease of
